According to article PMC9039011, “Novel β-Cyclodextrin-Based Heptavalent Glycyrrhetinic Acid Conjugates: Synthesis, Characterization, and Anti-Influenza Activity” (Frontiers in Chemistry, 2022):

Tests used:
[1] = Cytotoxicity assay (CellTiter-Glo cell viability); conditions: dog
MDCK cells = assay: Cytotoxicity assay (CellTiter-Glo cell viability); conditions: dose-dependent, 10 and 25 μM
HA = target: HA; set-up: method as in Sauter et al., 1989; conditions: monovalent interaction; ref Sauter et al., 1989; read-out: dissociation constant (KD); cited from earlier work

## CC1(C)[C@@H](O)CC[C@]2(C)[C@H]3C(=O)C=C4[C@@H]5C[C@@](C)(C(=O)O)CC[C@]5(C)CC[C@@]4(C)[C@]3(C)CC[C@@H]12 [Compound 2, glycyrrhetinic acid]
[1]; MDCK cells
  CC50 at 48 h: 85 ± 6.8 µM
[1]; MDCK cells (uninfected)
  viability at 48 h, 25 µM: 82.8%

## CC(=O)O[C@H]1C(=O)[C@@]2(C)[C@H]([C@H](OC(=O)c3ccccc3)[C@]3(O)C[C@H](OC(=O)[C@H](O)[C@@H](NC(=O)c4ccccc4)c4ccccc4)C(C)=C1C3(C)C)[C@]1(OC(C)=O)CO[C@@H]1C[C@@H]2O [PTX, paclitaxel]
MDCK cells
  viability of MDCK cells (words, positive control): decrease in the viability

## CC(=O)N[C@H]1[C@H]([C@H](O)[C@H](O)CO)OC(O)(C(=O)O)C[C@@H]1O (stereo partly shown) [sialic acid]
HA
  Kd: ~2000 µM
